Experimental data reported in patent publication US20250255845A1, “USE OF INTERLEUKIN (IL)-17A INHIBITOR IN PREPARATION OF MEDICAMENT FOR TREATING INFLAMMATORY DISEASE” (Xiangnan University, priority 2024, published 2025).

Legend:
[1] = system: PCNA; test: Immunohistochemistry of PCNA in dorsal skin of IMQ-induced psoriasis mice; type: in vivo, Balb/c mice; conditions: preventive and therapeutic administration groups; dose-dependent
Procedure: Balb/c mice (female, 6-8 weeks, 20+2 g), with certificate number [SCXK (Xiang) 2021-0002], were purchased from Hunan SJA Laboratory Animal (Changsha, China). All mice were housed in an specific pathogen free (SPF)-grade animal room with a 12 h light/12 h dark cycle, and experiments were started after the mice were acclimated for one week. Next, 96 mice were randomly divided into 12 groups (8 mice/group), including Control group, Control solvent (white vaseline) group, IMQ group, IMQ solvent (white vaseline) group, preventive administration of positive medicament Clo group (IMQ+Clo 55 mg), therapeutic administration of positive medicament group (IMQ+Clo (A) 55 mg), preventive administration of Tan low-dose group (IMQ+Tan 40 μg/cm^2), medium-dose group (IMQ+Tan160 μg/cm^2), and high-dose group (IMQ+Tan 640 μg/cm^2), and therapeutic administration of Tan low-dose group (IMQ+Tan (A) 40 μg/cm^2), medium-dose group (IMQ+Tan (A) 160 μg/cm^2), and high-dose group (IMQ+Tan (A) 640 μg/cm^2). After the mice were anesthetized, a 2 cm×3 cm area on the back was selected for hair removal. Modeling began 48 h after hair removal, and all modeling mice were applied with 65 mg (55 mg on the back and 5 mg on each ear) of IMQ cream every morning for 10 d. […]

[2] = system: IL-6 mRNA; test: Real-time fluorescence quantitative PCR, LPS-induced IL-6 mRNA in RAW264.7 cells; type: cell-based, mouse
Procedure: (§1) RAW264.7 cell culture: mouse mononuclear macrophages (RAW264.7, ATCC) are cultured in a complete medium containing 10% fetal bovine serum (FBS), 1% double antibodies (penicillin and streptomycin), and 89% DMEM at 37° C. and 5% CO2. In this experiment, RAW264.7 cells from passages 3 to 8 are used for related test.
(§2) LPS (100 ng/ml) is added for stimulation, with or without Tan, and the cell supernatant is collected to detect the contents of NO, IL-23, IL-17A, TNF-α, and IL-6 in the cell supernatant. The cell lysate is collected and the protein expressions (STAT3, p-STAT3 (Ser727), and p-STAT3 (Tyr705)) are detected by Western blot. Total cell RNA is extracted and real-time fluorescence quantitative polymerase chain reaction (PCR) is conducted to detect the expression levels of IL-23, IL-17A, TNF-α, and IL-6 mRNA.
(§3) RAW264.7 cells were inoculated into 6-well plate and the cell density was adjusted to 5.0×10^6 cells/well. […] The fluorescence intensity of each sample was detected according to the instructions of the real-time fluorescence quantitative PCR kit and specific primers (Table 1) (cycle conditions: enzyme activation 95° C. for 3 min, 1 cycle; denaturation 95° C. for 15 s, annealing/extension 60° C. for 1 min, 40 cycles). The mRNA expression level of each group was normalized with the GAPDH expression level, and the relative expression of mRNA was calculated using the 2^−ΔΔCt method.

[3] = system: IL-23 mRNA; test: Real-time fluorescence quantitative PCR, LPS-induced IL-23 mRNA in RAW264.7 cells; type: cell-based, mouse
Procedure: as §1, §2, §3

[4] = system: TNF-α; test: ELISA of LPS-induced TNF-α secretion in RAW264.7 cells; type: cell-based, mouse
Procedure: as §1, §2
RAW264.7 cells in the logarithmic growth phase were inoculated into a 6-well plate and the cell density was adjusted to 5.0×10^5 cells/well. After culturing for 24 h, the cells were stably adhered to the plate. The original medium was removed and different concentrations (5, 10, 20, 40 μM) of Tan were added to allow pretreatment for 1 h. […] The OD450 nm value of the cell supernatant was detected according to the instructions of the TNF-α and IL-6 ELISA kits, and the content of pro-inflammatory factors (TNF-α and IL-6) in the cell supernatant was calculated.

[5] = 5-40 μM, 24 h, vs LPS, P<0.001, dose-dependent

Q: What does the source list for `COc1ccc(-c2cc(=O)c3c(OC)c(OC)c(OC)c(OC)c3o2)cc1` [Tan, tangeretin]?
A: expression level of PCNA in the dorsal skin [1]: significantly reduced; inhibitory effect on IL-6 mRNA compared with positive control Clo ([2]; 40 μM): comparable to that of the positive control Clo; relative expression level of IL-6 mRNA [2, 5]: significantly decreased; inhibitory effect on IL-23 mRNA compared with positive control Clo ([3]; 40 μM): comparable to that of the positive control Clo; relative expression level of IL-23 mRNA [3, 5]: significantly decreased; inhibitory effect on TNF-α secretion compared with positive control Clo ([4]; 40 μM): comparable to that of the positive control; TNF-α level in the cell supernatant ([4]; 5-40 μM, 24 h, vs LPS group, P<0.001, dose-dependent): significantly decreased
